“And” between values parts separate entries of the source, which are not always exact repeats. Equal values may be shown once. Where a name gives a salt, the structure may show the parent alone.
Test: Pharmacokinetic study in humans, sodium salt in enteric capsules, single and multiple dose (Example 2)
Format: in vivo, human
Procedure: An open, randomised, parallel-group study in healthy volunteers (hereafter referred to as subjects) was conducted to evaluate the exposure of 4-chloro-N-[2-[(4-chlorophenyl)methyl]-3-oxo-1,2,4-thiadiazol-5-yl]benzamide after single and multiple dose administration of 3 dose levels of the sodium salt of 4-chloro-N-[2-[(4-chlorophenyl)methyl]-3-oxo-1,2,4-thiadiazol-5-yl]benzamide and to evaluate combination with dapagliflozin at steady state.
For the study, Vcaps enteric capsules, size 0, were individually filled with 200 mg of milled test material together with 2 mg of sodium docusate, 125 mg of mannitol and 6.5 mg of sodium lauryl sulfate. […]
A screening visit (Visit 1) was performed within 28 days before randomisation and the start of IMP administration. The subjects were confined to the research clinic from the evening before Day 1 (Visit 2; Day—1). […]
Pre-dose safety assessments as well as pre- and post-dose PK assessments were performed. The subjects left the clinic after the last PK-sample on Day 1 and returned for a 24 h PK sample and dosing on Day 2 (Visit 3).
Subjects self-administered the test material at home from Day 3 to Day 15. A telephone visit to check compliance, AE status and use of concomitant medications will be performed on Day 8 (Visit 4).
The subjects returned to the clinic on Days 16 and 17 (Visits 5 and 6), for PK sampling and AE assessment. Visit 6 continued in the evening of Day 17, when the subjects were confined to the clinic until Day 18. On Day 18, pre- and post-dose PK and safety assessments were performed. The subjects left the clinic after the last PK sample on Day 18 and returned for a 24 h PK sample and dosing on Day 19 (Visit 7).
On Day 19 (Visit 7) subjects began co-administration of the test material and dapagliflozin (Forxiga), 10 mg per day for 7 days (Day 19 to Day 25). The subjects returned to the clinic on Day 25 (Visit 8) for final dosing, PK and safety assessments. A final end-of-study visit (Visit 9) for follow-up of safety assessments was conducted 28 days (+14 days) after Visit 8 or after early withdrawal.
Venous blood samples (approximately 5 mL) for the determination of plasma concentrations of 4-chloro-N-[2-[(4-chlorophenyl)methyl]-3-oxo-1,2,4-thiadiazol-5-yl]benzamide after administration of the test material were collected through an indwelling venous catheter on Days 1, 2, 16 to 19 and 25.
The blood samples were collected in pre-labelled Li-Heparin tubes. All the collected blood samples were be centrifuged at 1500 G for 10 minutes to separate plasma within 60 minutes from the sample is drawn. The separated plasma from each blood sample was be divided into 2 aliquots in pre-labelled polypropylene cryotubes (A and B samples, approximately 750 μL in each tube) and frozen at <−70° C. On Day 25, the plasma was divided in to 3 aliquots of at least 500 μL (A and B samples for the test material, and 1 sample for potential future analysis of dapagliflozin).
Samples for determination of plasma concentrations of 4-chloro-N[2-[(4-chlorophenyl)methyl]-3-oxo-1,2,4-thiadiazol-5-yl]benzamide were analysed by Lablytica Life Science AB, Uppsala, Sweden by means of a validated LS-MS/MS method.
The data of plasma concentration to respective time points for the analyte (4-chloro-N-[2-[(4-chlorophenyl)methyl]-3-oxo-1,2,4-thiadiazol-5-yl]benzamide) were used for the pharmacokinetic analysis. Pharmacokinetic analysis was performed using non-compartmental analysis (NCA) module of Phoenix WinNonlin 8.1 software to determine the following pharmacokinetic parameters.
After single dose administration of test material: • AUC0-24, Cmax, Tmax and dose proportionality (based on AUC0-24 and Cmax) (secondary endpoints). […]

[1] = 400 mg Dose Group, capsules once daily, Day 18, Geometric Mean
[2] = 400 mg Dose Group, capsules once daily, Day 18, Mean
[3] = 400 mg Dose Group, capsules once daily, Day 18, Median
[4] = 400 mg Dose Group, capsules once daily, Day 18, individual subjects, listed as test material
[5] = 800 mg Dose Group, capsules once daily, Day 18, Geometric Mean
[6] = 800 mg Dose Group, capsules once daily, Day 18, Mean
[7] = 800 mg Dose Group, capsules once daily, Day 18, Median
[8] = 800 mg Dose Group, capsules once daily, Day 18, individual subjects, listed as test material
[9] = 2000 mg Dose Group, capsule once daily, Day 18, Geometric Mean
[10] = 2000 mg Dose Group, capsule once daily, Day 18, Mean
[11] = 2000 mg Dose Group, capsule once daily, Day 18, Median
[12] = 2000 mg Dose Group, capsule once daily, Day 18, individual subjects, listed as test material
[13] = capsule once daily, Day 18, individual subjects, listed as test material
[14] = dose-normalised, 400 mg Dose Group, capsules once daily, Day 18, Geometric Mean
[15] = dose-normalised, 400 mg Dose Group, capsules once daily, Day 18, Mean
[16] = dose-normalised, 400 mg Dose Group, capsules once daily, Day 18, Median
[17] = dose-normalised, 400 mg Dose Group, capsules once daily, Day 18, individual subjects, listed as test material
[18] = dose-normalised, 800 mg Dose Group, capsules once daily, Day 18, Geometric Mean
[19] = dose-normalised, 800 mg Dose Group, capsules once daily, Day 18, Mean
[20] = dose-normalised, 800 mg Dose Group, capsules once daily, Day 18, Median
[21] = dose-normalised, 800 mg Dose Group, capsules once daily, Day 18, individual subjects, listed as test material
[22] = dose-normalised, 2000 mg Dose Group, capsule once daily, Day 18, Geometric Mean

O=C(Nc1nc(=O)n(Cc2ccc(Cl)cc2)s1)c1ccc(Cl)cc1 [Compound of formula II, sodium salt of 4-chloro-N-[2-[(4-chlorophenyl)methyl]-3-oxo-1,2,4-thiadiazol-5-yl]benzamide]
increase in systemic exposure compared to a standard suspension of the active ingredient (200 mg of the sodium salt): up to five-fold
CLss_F [1]: 267.1 mL/h
Clast [1]: 62.75 µg/mL
Tlast [1]: 23.93 h
CLss_F [2]: 271.8 mL/h
Clast [2]: 64.03 µg/mL
Tlast [2]: 23.93 h
CLss_F [3]: 286.3 mL/h
Clast [3]: 60.9 µg/mL
Tlast [3]: 23.93 h
AUC_TAU [4]: 1300 µg·h/mL and 1750 µg·h/mL and 1480 µg·h/mL and 1320 µg·h/mL and 2100 µg·h/mL
AUClast [4]: 1290 µg·h/mL and 1740 µg·h/mL and 1480 µg·h/mL and 1320 µg·h/mL and 2090 µg·h/mL and 1650 µg·h/mL
CLss_F [4]: 330 mL/h and 308 mL/h and 229 mL/h and 270 mL/h and 303 mL/h and 191 mL/h
Clast [4]: 54.7 µg/mL and 50.4 µg/mL and 73.2 µg/mL and 60.9 µg/mL and 49.2 µg/mL and 86.9 µg/mL and 72.9 µg/mL
Tlast [4]: 23.9 h (6×) and 24 h
Tmax [4]: 12 h and 2 h and 3 h and 0.25 h and 23.9 h
CLss_F [5]: 316.5 mL/h
Tlast [5]: 23.92 h
CLss_F [6]: 321.8 mL/h
Tlast [6]: 23.92 h
CLss_F [7]: 292.8 mL/h
Tlast [7]: 23.92 h
Tlast (800 mg Dose Group, capsules once daily, Day 18, individual subjects): 23.9 h
AUC_TAU [8]: 2500 µg·h/mL and 2910 µg·h/mL and 2730 µg·h/mL and 2870 µg·h/mL
AUClast [8]: 2490 µg·h/mL and 2900 µg·h/mL and 2620 µg·h/mL and 2980 µg·h/mL and 2720 µg·h/mL and 2580 µg·h/mL and 2860 µg·h/mL
CLss_F [8]: 442 mL/h and 321 mL/h and 275 mL/h and 293 mL/h and 279 mL/h
Clast [8]: 98 μg/ml and 120 μg/ml and 115 μg/ml (2×) and 127 μg/ml and 110 μg/ml and 117 μg/ml
Cmax [8]: 118 µg/mL and 127 µg/mL and 115 µg/mL and 130 µg/mL and 126 µg/mL and 117 µg/mL and 128 µg/mL
Tmax [8]: 9.98 h and 0 h and 23.9 h and 10 h and 6 h
CLss_F [9]: 202.7 mL/h
Clast [9]: 42.19 µg/mL
Tlast [9]: 23.92 h
CLss_F [10]: 207.9 mL/h
Tlast [10]: 23.92 h
CLss_F [11]: 210.5 mL/h
Clast [11]: 38.7 µg/mL
Tlast [11]: 23.92 h
AUC_TAU [12]: 1130 µg·h/mL and 841 µg·h/mL and 1600 µg·h/mL and 802 µg·h/mL and 950 µg·h/mL and 774 µg·h/mL and 1010 µg·h/mL
CLss_F [12]: 176 mL/h and 238 mL/h and 125 mL/h and 249 mL/h and 210 mL/h and 259 mL/h and 198 mL/h
Tmax [12]: 0.267 h and 23.9 h and 0 h and 10 h and 12 h
Tlast (capsule once daily, Day 18, individual subjects): 23.9 h
AUClast [13]: 1130 µg·h/mL and 1400 µg·h/mL and 838 µg·h/mL and 1600 µg·h/mL and 800 µg·h/mL and 947 µg·h/mL and 772 µg·h/mL and 1010 µg·h/mL
Clast [13]: 47 µg/mL and 62 µg/mL and 33.5 µg/mL and 68 µg/mL and 33.3 µg/mL and 36.7 µg/mL and 30.4 µg/mL and 40.7 µg/mL
Cmax [13]: 52.1 µg/mL and 62 µg/mL and 42 µg/mL and 71.9 µg/mL and 40.2 µg/mL and 46.2 µg/mL and 34.6 µg/mL and 49.9 µg/mL
accumulation in the blood plasma after repeat dosing (capsules, 200-800 mg once daily): substantial accumulation
AUC_TAU_D [14]: 3.744 µg·h/mL/mg
AUClast_D [14]: 3.788 µg·h/mL/mg
Cmax_D [14]: 0.1741 µg/mL/mg
AUC_TAU_D [15]: 3.816 µg·h/mL/mg
AUClast_D [15]: 3.852 µg·h/mL/mg
Cmax_D [15]: 0.1769 µg/mL/mg
AUC_TAU_D [16]: 3.504 µg·h/mL/mg
AUClast_D [16]: 3.703 µg·h/mL/mg
Cmax_D [16]: 0.1653 µg/mL/mg
AUC_TAU_D [17]: 3.03 µg·h/mL/mg and 3.24 µg·h/mL/mg and 4.37 µg·h/mL/mg and 3.71 µg·h/mL/mg and 3.3 µg·h/mL/mg and 5.24 µg·h/mL/mg
AUClast_D [17]: 3.02 µg·h/mL/mg and 3.23 µg·h/mL/mg and 4.36 µg·h/mL/mg and 3.7 µg·h/mL/mg and 3.29 µg·h/mL/mg and 5.23 µg·h/mL/mg and 4.13 µg·h/mL/mg
Cmax_D [17]: 0.141 µg/mL/mg and 0.15 µg/mL/mg and 0.193 µg/mL/mg and 0.165 µg/mL/mg and 0.161 µg/mL/mg and 0.248 µg/mL/mg and 0.182 µg/mL/mg
AUC_TAU_D [18]: 3.159 µg·h/mL/mg
AUClast_D [18]: 3.24 µg·h/mL/mg
Cmax_D [18]: 0.1472 µg/mL/mg
AUC_TAU_D [19]: 3.205 µg·h/mL/mg
AUClast_D [19]: 3.274 µg·h/mL/mg
Cmax_D [19]: 0.1482 µg/mL/mg
AUC_TAU_D [20]: 3.416 µg·h/mL/mg
AUClast_D [20]: 3.337 µg·h/mL/mg
Cmax_D [20]: 0.1525 µg/mL/mg
AUC_TAU_D [21]: 2.26 µg·h/mL/mg and 3.12 µg·h/mL/mg and 3.64 µg·h/mL/mg and 3.27 µg·h/mL/mg and 3.42 µg·h/mL/mg and 3.59 µg·h/mL/mg
AUClast_D [21]: 2.25 µg·h/mL/mg and 3.11 µg·h/mL/mg and 3.63 µg·h/mL/mg and 144 µg·h/mL/mg and 3.73 µg·h/mL/mg and 3.4 µg·h/mL/mg and 3.22 µg·h/mL/mg and 3.58 µg·h/mL/mg
Cmax_D [21]: 0.109 µg/mL/mg and 0.148 µg/mL/mg and 0.159 µg/mL/mg and 0 µg/mL/mg and 0.163 µg/mL/mg and 0.158 µg/mL/mg and 0.146 µg/mL/mg and 0.16 µg/mL/mg
AUC_TAU_D [22]: 4.934 µg·h/mL/mg
AUClast_D [22]: 5.139 µg·h/mL/mg
Cmax D [22]: 0.2432 µg/mL/mg
AUC_TAU_D (dose-normalised, 2000 mg Dose Group, capsule once daily, Day 18, Mean): 5.082 µg·h/mL/mg

From US20240082222A1, “4-CHLORO-N-[2-[(4-CHLOROPHENYL)METHYL]-3-OXO-1,2,4-THIADIAZOL-5-YL]BENZAMIDE FOR USE IN MEDICINE” (Betagenon AB, priority 2021, published 2024)
